In US9737603B1, “Alcohol-based local anesthesia and associated use thereof” (priority 2014, dated 2017):

Columns and labels:
[1] = Solution stability (precipitation of benzocaine); type: physicochemical; details: liquid embodiment, isopropyl alcohol 70-75% (v)
From the text: In a non-limiting exemplary embodiment, the alcohol-based topical anesthesia chemical composition 10 may be stored in a tightly sealed container at 25 C or a temperature range of 20 C to 40 C. Temperatures below 15 C may cause the benzocaine to precipitate.
However, beyond 16% (w/v) of benzocaine, the solution stability becomes an issue due to the precipitation of benzocaine; and menthol can be effectively utilized in the range 1% to 3% (w/v).

skin tissue [2] = experiment: Topical anesthesia / analgesia after application to skin; type: in vivo; details: 1% (w/v) menthol, preliminary work
From the text: The alcohol-based topical anesthesia chemical composition 10 also has a skin analgesic, menthol 1% (w/v).

skin tissue [3] = details: topical; cited from earlier work

## CCOC(=O)c1ccc(N)cc1 [benzocaine]
[1]
  benzocaine concentration beyond which solution stability becomes an issue due to precipitation of benzocaine: > 16 % (w/v)

## CC1CCC(C(C)C)C(O)C1 (stereo not drawn) [menthol]
Skin tissue [2]
  counterirritant analgesic property: safe yet effective

## C[C@]12CCC(=O)C=C1CC[C@@H]1[C@@H]2[C@@H](O)C[C@@]2(C)[C@H]1CC[C@]2(O)C(=O)CO [Hydrocortisone]
Skin tissue [3]
  analgesia (alternatives to menthol): does not provide immediate analgesia
